# Laboratory results taken from patent US4950818A, “Method for treating ulcer” (Kuraray Company, Ltd., priority 1988, dated 1990).
# Key:
# [1] = tested on: HCl-ethanol-induced ulcer at the mucosa of the stomach; test: Antiulcer activity (HCl-ethanol ulcer); type: in vivo, rats; conditions: rat, one hour before HCl-ethanol; for inhibition in vivo at 5 mg/kg: 5 mg/kg oral; for inhibition in vivo at 2.5 mg/kg: 2.5 mg/kg oral; for inhibition in vivo at 1 mg/kg: 1 mg/kg oral
# Experimental: 1.5 ml of aqueous 60% ethanol solution containing 150 mM hydrochloric acid was orally administered to rats. One hour thereafter the rats were sacrificed and the length (mm) of HCl-ethanol-induced ulcer which was generated at the mucosa of the stomach was measured. Sum of the length of ulcer per animal is defined as ulcer coefficient. Specimens were each orally administered one hour before the HCl-ethanol administration. Inhibition rate was calculated by dividing the difference of ulcer coefficients of the control group and the specimen-administered group by the ulcer coefficient of the control group.
# [2] = Acute toxicity (oral); conditions: mouse, in vivo, male ICR-strain mice
# Experimental: Acute toxicity tests through oral administration were carried out using male ICR-strain mice (5 weeks old).
# [3] = tested on: pylorus ligation ulcer at the proventriculus part; test: Antiulcer activity (pylorus ligation ulcer); type: in vivo, rats; conditions: rat, 100 mg/kg oral, 30 minutes before pylorus ligation; 13 hours
# Experimental: After rats weighing 210 to 230 g were made to fast for 24 hours, each pylorus part was ligated under ether anesthesia according to Shay et al. method [Castroenterogy, 5, 43 (1945)]. After leaving for 13 hours the animals were sacrificed, and each ulcer which had been generated at the proventriculus part was macroscopicly observed and evaluated according to the following 5 steps of ulcer index:
# 2; There are hyperemia or 5 or less of small ulcers
# (diameter less than 3 mm).
# 3; There are 5 or more of small ulcers or one large
# ulcer (diameter equal to or more than 3 mm).
# 4; There are 2 or more of large ulcers.
# Compound (1) (specimen) as prepared according to the method in Reference example and spizofurone as a control specimen were orally administered 30 minutes before the pylorus ligation. Inhibition rate was calculated by dividing the difference of ulcer coefficients of the control group and the specimen-administered group by the ulcer coefficient of the control group.
smiles,measurement,setting,value
Cc1ccc(/C=C/C2=CC(=O)OC2O)cc1 (centres unmarked) [(2)],inhibition in vivo at 5 mg/kg,"[1]; 1 h, read-out: Inhibition rate",98.3%
CCc1ccc(/C=C/C2=CC(=O)OC2O)cc1 (centres unmarked) [(4)],inhibition in vivo at 2.5 mg/kg,"[1]; 1 h, read-out: Inhibition rate",86.2%
COc1ccc(/C=C/C2=CC(=O)OC2O)cc1 (centres unmarked) [(5)],inhibition in vivo at 2.5 mg/kg,"[1]; 1 h, read-out: Inhibition rate",98.8%
COc1cccc(/C=C/C2=CC(=O)OC2O)c1OC (centres unmarked) [(6)],inhibition in vivo at 1 mg/kg,"[1]; 1 h, read-out: Inhibition rate",59.8%
COc1ccc(OC)c(/C=C/C2=CC(=O)OC2O)c1 (centres unmarked) [(7)],inhibition in vivo at 5 mg/kg,"[1]; 1 h, read-out: Inhibition rate",98.6%
O=C1C=C(/C=C/c2c(F)c(F)c(F)c(F)c2F)C(O)O1 (centres unmarked) [(8)],inhibition in vivo at 1 mg/kg,"[1]; 1 h, read-out: Inhibition rate",67.4%
O=C1C=C(/C=C/c2ccc(F)cc2)C(O)O1 (centres unmarked) [(9)],inhibition in vivo at 5 mg/kg,"[1]; 1 h, read-out: Inhibition rate",100%
O=C1C=C(/C=C/c2ccc(Cl)cc2)C(O)O1 (centres unmarked) [(10)],inhibition in vivo at 5 mg/kg,"[1]; 1 h, read-out: Inhibition rate",100%
O=C1C=C(/C=C/c2cccc(Cl)c2)C(O)O1 (centres unmarked) [(11)],inhibition in vivo at 2.5 mg/kg,"[1]; 1 h, read-out: Inhibition rate",91%
O=C1C=C(/C=C/c2ccc(Cl)cc2Cl)C(O)O1 (centres unmarked) [(12)],inhibition in vivo at 5 mg/kg,"[1]; 1 h, read-out: Inhibition rate",54.1%
O=C1C=C(/C=C/c2ccc([N+](=O)[O-])cc2)C(O)O1 (centres unmarked) [(13)],inhibition in vivo at 2.5 mg/kg,"[1]; 1 h, read-out: Inhibition rate",34.1%
N#Cc1ccc(/C=C/C2=CC(=O)OC2O)cc1 (centres unmarked) [(15)],inhibition in vivo at 5 mg/kg,"[1]; 1 h, read-out: Inhibition rate",99.4%
O=C1C=C(/C=C/c2cccc(O)c2)C(O)O1 (centres unmarked) [(16)],inhibition in vivo at 2.5 mg/kg,"[1]; 1 h, read-out: Inhibition rate",42.7%
"O=C1C=C(/C=C/c2ccccc2)C(O)O1 (centres unmarked) [Compound (1), 5-hydroxy-4-[2-phenyl-(E)-ethenyl]-2(5H)-furanone]",LD50,[2],≥ 2000 mg/kg
same,inhibition in vivo at 5 mg/kg,"[1]; 1 h, read-out: Inhibition rate",97.9%
same,Inhibition rate,[3],80.3%
Cc1cc(C)c(/C=C/C2=CC(=O)OC2O)c(C)c1 (centres unmarked) [Compound (3)],inhibition in vivo at 5 mg/kg,"[1]; 1 h, read-out: Inhibition rate",100%
"CC(=O)c1ccc2c(c1)C(=O)C1(CC1)O2 [Spizofurone, reference compound]",Inhibition rate,[1]; 100 mg/kg oral,86.6%
same,Inhibition rate,[3],1.5%
"CC(=O)CCC=C(C)CCC=C(C)CCC=C(C)CCC=C(C)C [Teprenone, reference compound]",inhibition in vivo at 25 mg/kg,"[1]; 1 h, 25 mg/kg oral, read-out: Inhibition rate",48.9%
